# From patent US11339184B2, “Antibacterial compounds, compositions thereof, and methods using same” (priority 2019, dated 2022)
# Where two headings read alike, the source gives them in different places.
# Tests used:
# M. smegmatis = assay: MIC against other mycobacteria: M. smegmatis; type: cell-based; conditions: Table 3, M. smegmatis
# M. avium = assay: MIC against other mycobacteria: M. avium; type: cell-based; conditions: Table 3, M. avium
# M. abscessus = assay: MIC against other mycobacteria: M. abscessus; type: cell-based; conditions: Table 3, M. abscessus
# M. tuberculosis H37rv = assay: Antibiotic assay against M. tuberculosis (MIC / IC90); type: cell-based, Mycobacterium tuberculosis; conditions: for IC90: H37Rv
# M. marinum = assay: MIC against other mycobacteria: M. marinum; type: cell-based; conditions: Table 3, M. marinum
# [1] = tested on: Gram-positive bacteria, including Staphylococcus aureus, Staphylococcus epidermidis, Listeria monocytogenes and M. tuberculosis; type: cell-based
# [2] = Table 4, Formula III derivatives, M. tuberculosis H37rv
SMILES,MIC (M. smegmatis),MIC (M. avium),MIC (M. abscessus),MIC (M. tuberculosis H37rv),"MIC (M. tuberculosis H37rv; Table 3, M. tuberculosis H37rv, Trial 2)","MIC (M. tuberculosis H37rv; Table 3, M. tuberculosis H37rv, Trial 3)","MIC (M. tuberculosis H37rv; Table 3, M. tuberculosis H37rv, Trial 4)",MIC (M. tuberculosis H37rv; [2]),MIC (M. marinum),IC90 (M. tuberculosis H37rv),activity as antibiotics against Gram-positive bacteria [1]
"CO[C@H]1/C=C/O[C@@]2(C)Oc3c(C)c(O)c4c(O)c(c(/C=N/N5CCN(C)CC5)c(O)c4c3C2=O)NC(=O)/C(C)=C\C=C\[C@H](C)[C@H](O)[C@@H](C)[C@@H](O)[C@@H](C)[C@H](OC(C)=O)[C@@H]1C [Rif, rifampicin]",> 25 µg/mL,< 0.195 µg/mL,> 25 µg/mL,0.05 µg/mL,0.31 µg/mL,0.31 µg/mL,0.31 µg/mL,< 0.02 µg/mL,> 25 µg/mL,,
CC(=O)OC1C(C)C(OC2CC3OCOC3C(C)O2)/C=C/OC2(C)CC(O)c3c(c(C)c(O)c4c3C(=O)C=C(NC(=O)/C(C)=C\C=C\C(C(C)OC(=O)C(C)(C)CC(=O)O)C(O)C(C)C(O)C1C)C4=O)O2 (centres unmarked) [kanglemycin V1],,,,,,,,,,3120 nM,active
CC(=O)OC1C(C)C(OC2CC3OCOC3C(C)O2)/C=C/OC2(C)OC3=C(C)C(=O)c4c(O)c(cc5c4C3=C2OCO5)NC(=O)/C(C)=C\C=C\C(C(C)OC(=O)C(C)(C)CC(=O)O)C(O)C(C)C(O)C1C (centres unmarked) [kanglemycin V2],,,,,,,,0.08 µg/mL,,1560 nM,active
